Measurements taken from US6384220B2, “Para-aryl or heterocyclic substituted phenyl glucokinase activators” (Hoffmann-La Roche Inc., priority 2000, dated 2002).

Row | SMILES | melting point
1 | O=C(Nc1ccc(CO)cn1)C(CC1CCCC1)c1ccc(-c2ccccc2)cc1 (centres unmarked) [Example 24, 2-Biphenyl-4-yl-3-cyclopentyl-N-(5-hydroxymethyl-pyridin-2-yl)-propionamide] | 67 to 70 °C
2 | O=C(Nc1ccc(CO)cn1)C(CC1CCCC1)c1ccc(-c2cccc3ccccc23)cc1 (centres unmarked) [Example 27, 3-Cyclopentyl-N-(5-hydroxymethyl-pyridin-2-yl)-2-(4-naphthalen-1-yl-phenyl)-propionamide] | 72 to 75 °C
3 | O=C(Nc1nccs1)C(CC1CCCC1)c1ccc(S(=O)(=O)c2ncc[nH]2)cc1 (centres unmarked) [Example 20, 3-Cyclopentyl-2-[4-(1H-imidazole-2-sulfonyl)-phenyl]-N-thiazol-2-yl-propionamide] | 249 to 251 °C
4 | O=C(Nc1nccs1)C(CC1CCCC1)c1ccc(-c2ccncc2)cc1 (centres unmarked) [Example 9, 3-Cyclopentyl-2-(4-pyridin-4-yl-phenyl)-N-thiazol-2-yl-propionamide] | 213 to 215 °C
5 | CNC(=O)NC(=O)C(CC1CCCC1)c1ccc(-c2cccnc2)cc1 (centres unmarked) [Example 36, 1-[3-Cyclopentyl-2-(4-pyridin-3-yl-phenyl)-propionyl]-3-methyl-urea] | 158 to 160 °C
6 | CNC(=O)NC(=O)C(CC1CCCC1)c1ccc(-c2ccc3[nH]ccc3c2)cc1 (centres unmarked) [Example 37, 1-{3-Cyclopentyl-2-[4-(1H-indol-5-yl)-phenyl]-propionyl}-3-methyl-urea] | 91 to 95 °C
7 | O=C(Nc1nc(CCO)cs1)C(CC1CCCC1)c1ccc(-c2cccc3ccccc23)cc1 (centres unmarked) [Example 6, 3-Cyclopentyl-N-[4-(2-hydroxyethyl)-thiazol-2-yl]-2-(4-naphthalen-1-yl-phenyl)-propionamide] | 84 to 87 °C
8 | O=C(Nc1ccccn1)C(CC1CCCC1)c1ccc(-c2cccnc2)cc1 (centres unmarked) [Example 28, 3-Cyclopentyl-N-pyridin-2-yl-2-(4-pyridin-3-yl-phenyl)-propionamide] | 139 to 140 °C
9 | COC(=O)c1csc(NC(=O)C(CC2CCCC2)c2ccc(-c3ccccc3)cc2)n1 (centres unmarked) [Example 2, 2-(2-Biphenyl-4-yl-3-cyclopentyl-propionylamino)-thiazole-4-carboxylic acid methyl ester] | 98 to 101 °C
10 | COC(=O)c1ccc(NC(=O)C(CC2CCCC2)c2ccc(-c3ccccc3)cc2)nc1 (centres unmarked) [Example 22, 6-(2-Biphenyl-4-yl-3-cyclopentyl-propionylamino)-nicotinic acid methyl ester] | 63 to 65 °C
11 | O=C(Nc1nccs1)C(CC1CCCC1)c1ccc(S(=O)(=O)C2CCCC2)cc1 (centres unmarked) [Example 19, 2-(4-Cyclopentanesulfonyl-phenyl)-3-cyclopentyl-N-thiazol-2-yl-propionamide] | 180 to 182 °C
12 | O=C(Nc1nc(CO)cs1)C(CC1CCCC1)c1ccc(-c2ccccc2)cc1 (centres unmarked) [Example 3, 2-Biphenyl-4-yl-3-cyclopentyl-N-(4-hydroxymethyl-thiazol-2-yl)-propionamide] | 102 to 104 °C
13 | O=C(Nc1ccccn1)C(CC1CCCC1)c1ccc(-c2cccc3ccccc23)cc1 (centres unmarked) [Example 25, 3-Cyclopentyl-2-(4-naphthalen-1-yl-phenyl)-N-pyridin-2-yl-propionamide] | 73 to 77 °C
14 | CNC(=O)NC(=O)C(CC1CCCC1)c1ccc(-c2ccccc2)cc1 (centres unmarked) [Example 34, 1-(2-Biphenyl-4-yl-3-cyclopentyl-propionyl)-3-methyl urea] | 195 to 197 °C
15 | CNC(=O)NC(=O)C(CC1CCCC1)c1ccc(S(=O)(=O)C2CCCCC2)cc1 (centres unmarked) [Example 40, 1-[2-(4-Cyclohexanesulfonyl-phenyl)-3-cyclopentyl-propionyl]-3-methyl-urea] | 244 to 246 °C
16 | O=C(Nc1ccccn1)C(CC1CCCC1)c1ccc(-c2ccncc2)cc1 (centres unmarked) [Example 29, 3-Cyclopentyl-N-pyridin-2-yl-2-(4-pyridin-4-yl-phenyl)-propionamide] | 165 to 167 °C

Row | SMILES | melting point
17 | CNC(=O)NC(=O)C(CC1CCCC1)c1ccc(N2CCOCC2)cc1 (centres unmarked) [Example 39, 1-[3-Cyclopentyl-2-(4-morpholin-4-yl-phenyl)-propionyl]-3-methyl-urea] | 206 to 207 °C
18 | O=C(O)c1ccc(NC(=O)C(CC2CCCC2)c2ccc(-c3cccc4ccccc34)cc2)nc1 (centres unmarked) [Example 26, 6-[3-Cyclopentyl-2-(4-naphthalen-1-yl-phenyl)-propionylamino]-nicotinic acid] | 155 to 158 °C
19 | O=C(Nc1nccs1)C(CC1CCCC1)c1ccc(OCc2ccccc2)cc1 (centres unmarked) [Example 11, 2-(4-Benzyloxy-phenyl)-3-cyclopentyl-N-thiazol-2-yl-propionamide] | 48 to 50 °C
20 | O=C(Nc1nccs1)C(CC1CCCC1)c1ccc(-c2cccnc2)cc1 (centres unmarked) [Example 8, 3-Cyclopentyl-2-(4-pyridin-3-yl-phenyl)-N-thiazol-2-yl-propionamide] | 48 to 52 °C
21 | O=C(Nc1nccs1)C(CC1CCCC1)c1ccc(N2CCOCC2)cc1 (centres unmarked) [Example 18, 3-Cyclopentyl-2-(4-morpholin-4-yl-phenyl)-N-thiazol-2-yl-propionamide] | 244 to 246 °C
22 | O=C(O)c1ccc(NC(=O)C(CC2CCCC2)c2ccc(-c3ccccc3)cc2)nc1 (centres unmarked) [Example 23, 6-(2-Biphenyl-4-yl-3-cyclopentyl-propionylamino)-nicotinic acid] | 271 to 272 °C (dec.)
23 | NC(=O)NC(=O)C(CC1CCCC1)c1ccc(-c2ccccc2)cc1 (centres unmarked) [Example 33, (2-Biphenyl-4-yl-3-cyclopentyl-propionyl) urea] | 184 to 185 °C
24 | O=C(Nc1nccs1)C(CC1CCCC1)c1ccc(-c2ccc3[nH]ccc3c2)cc1 (centres unmarked) [Example 10, 3-Cyclopentyl-2-[4-(1H-indol-5-yl)-phenyl]-N-thiazol-2-yl-propionamide] | 112 to 115 °C
25 | O=C(Nc1nccs1)C(CC1CCCC1)c1ccc(-c2cccc3ccccc23)cc1 (centres unmarked) [Example 5, 3-Cyclopentyl-2-(4-naphthalen-1-yl-phenyl)-N-thiazol-2-yl-propionamide] | 202 to 204 °C
26 | O=C(Nc1ccccn1)C(CC1CCCC1)c1ccc(-c2ccccc2)cc1 (centres unmarked) [Example 21, 2-Biphenyl-4-yl-3-cyclopentyl-N-pyridin-2-yl-propionamide] | 57 to 59 °C
27 | O=C(Nc1nccs1)C(CC1CCCC1)c1ccc(-c2ccccc2)cc1 (centres unmarked) [Example 1, 2-Biphenyl-4-yl-3-cyclopentyl-N-thiazol-2-yl-propionamide] | 194 to 195 °C
28 | O=C(Nc1nc(CO)cs1)C(CC1CCCC1)c1ccc(Oc2ccccc2)cc1 (centres unmarked) [Example 13, 3-Cyclopentyl-N-(4-hydroxymethyl-thiazol-2-yl)-2-(4-phenoxy-phenyl)-propionamide] | 83.7 to 87 °C
29 | O=C(Nc1nccs1)C(CC1CCCC1)c1ccc(Oc2ccccc2)cc1 (centres unmarked) [Example 12, 3-Cyclopentyl-2-(4-phenoxy-phenyl)-N-thiazol-2-yl-propionamide] | 154.9 to 155.1 °C
30 | O=C(Nc1nccs1)C(CC1CCCC1)c1ccc(-c2cccs2)cc1 (centres unmarked) [Example 7, 3-Cyclopentyl-N-thiazol-2-yl-2-(4-thiophen-2-yl-phenyl)-propionamide] | 194 °C (dec.)
31 | O=C(Nc1nccs1)[C@H](CC1CCCC1)c1ccc(-c2ccccc2)cc1 [Example 4, (2R)-2-Biphenyl-4-yl-3-cyclopentyl-N-thiazol-2-yl-propionamide] | 132 to 134 °C
32 | CNC(=O)NC(=O)C(CC1CCCC1)c1ccc(-c2cccc3ccccc23)cc1 (centres unmarked) [Example 35, 1-[3-Cyclopentyl-2-(4-naphthalen-1-yl-phenyl)-propionyl]-3-methyl urea] | 85 to 88 °C
